{"source": "patent US20070082841A1", "about": "“Ocular administration of immunosuppressive agents” (Aciont, Inc., priority 2005, published 2007)", "experiment": "Ocular iontophoretic delivery of MPA in rabbits; amounts in eye tissues by HPLC", "assay_type": "in vivo, New Zealand white rabbits", "details": "rabbit eye; iontophoresis 3 mA for 20 minutes, 20 μL of 0.6 M MPA in 1% agarose gel, 0.07 cm^2; 15 minutes after delivery", "description": "Three New Zealand white rabbits were each fitted with ocular iontophoretic device on one eye. Each device contained 20 μL of 0.6 M mycophenolic acid (MPA) in 1% agarose gel. A vacuum was provided between the eyes of the rabbits and the ocular iontophoretic device by withdrawing 0.2 cc from the space therebetween. MPA was iontophoretically delivered from the cathodes of the devices on the conjunctiva/sclera near the limbus and the upper eyelid using constant current control from standard iontophoretic dose controller. The MPA was iontophoretically delivered through a surface area of 0.07 cm^2 at 3 mA for 20 minutes. The anode electrode was attached on the rabbit's ear, opposite the treatment eye. Rabbits were euthanized at 15 minutes following completion of the iontophoretic delivery. Treatment eyes were dissected and the amounts of MPA in the conjunctiva, sclera, retina, and vitreous were determined using HPLC assay."}
{"smiles": "COc1c(C)c2c(c(O)c1C/C=C(\\C)CCC(=O)O)C(=O)OC2", "note": "[MPA, mycophenolic acid]", "values": [{"measurement": "MPA Amount, Conjunctiva", "value": 30.45, "unit": "µg"}, {"measurement": "MPA Amount, Retina", "value": 1.60, "unit": "µg"}, {"measurement": "MPA Amount, Sclera", "value": 20.65, "unit": "µg"}, {"measurement": "MPA Amount, Total (combined total for all of the dissections)", "value": 60.75, "unit": "µg"}, {"measurement": "MPA Amount, Vitreous", "value": 2.45, "unit": "µg"}]}
